Experimental data published in US10287301B2 (Achillion Pharmaceuticals, Inc., priority 2015, dated 2019).

What follows are compounds tested against Human Factor D (Homo sapiens (Human), UniProt P00746) (assay: Human Factor D Assay). Conditions: Table 3; Human Factor D 80 nM, substrate Z-L-Lys-SBzl; read-out: IC50 (Stars).
Chain of Human Factor D (P00746 26-253): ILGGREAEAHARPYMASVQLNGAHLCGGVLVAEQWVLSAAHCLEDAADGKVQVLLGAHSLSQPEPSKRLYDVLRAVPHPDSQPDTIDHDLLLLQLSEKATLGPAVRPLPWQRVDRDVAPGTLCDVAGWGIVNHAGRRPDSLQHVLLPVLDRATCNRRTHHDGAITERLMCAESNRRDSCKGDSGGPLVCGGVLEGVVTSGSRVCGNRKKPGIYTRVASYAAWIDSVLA
Assay type: biochemical
In short: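 IC50 values derive from nonlinear regression of Factor D reaction rates against compound concentration. The enzyme, purified from human serum, is used at 80 nM final with a 5 min room-temperature compound preincubation in 50 mM Tris, 1M NaCl, pH 7.5, before 100 μM Z-L-Lys-SBzl plus 100 μM DTNB are added.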
`CC(=O)c1nn(CC(=O)N2[C@H]3C[C@@]3(CO)C[C@H]2C(=O)Nc2cccc(Br)n2)c2ccc(-c3cnc(C)nc3)cc12` [Compound 383, (1S,3S,5R)-2-(2-(3-Acetyl-5-(2-methylpyrimidin-5-yl)-1H-indazol-1-yl)acetyl)-N-(6-bromopyridin-2-yl)-5-(hydroxymethyl)-2-azabicyclo[3.1.0]hexane-3-carboxamide] showed an IC50 of less than 1 µM. `COc1ncc(-c2ccc3c(c2)c(C(C)=O)nn3CC(=O)N2C[C@H](F)C[C@H]2C(=O)Nc2cccc(Br)n2)cn1` [Compound 384, (2S,4R)-1-(2-(3-Acetyl-5-(2-methoxypyrimidin-5-yl)-1H-indazol-1-yl)acetyl)-N-(6-bromopyridin-2-yl)-4-fluoropyrrolidine-2-carboxamide] gave an IC50 of less than 1 µM. `COc1ncc(-c2ccc3c(c2)c(C(C)=O)nn3CC(=O)N2[C@@H]3C[C@@H]3C[C@H]2C(=O)Nc2cncc(Br)n2)cn1` [Compound 385, (1R,3S,5R)-2-(2-(3-Acetyl-5-(2-methoxypyrimidin-5-yl)-1H-indazol-1-yl)acetyl)-N-(6-bromopyrazin-2-yl)-2-azabicyclo[3.1.0]hexane-3-carboxamide] gave an IC50 of less than 1 µM. Work on `CC(=O)c1nn(CC(=O)N2C[C@H](F)C[C@H]2C(=O)Nc2cccc(Br)n2)c2cc(CN(C)C)c(-c3cnc(C)nc3)cc12` [Compound 387, (2S,4R)-1-(2-(3-Acetyl-6-((dimethylamino)methyl)-5-(2-methylpyrimidin-5-yl)-1H-indazol-1-yl)acetyl)-N-(6-bromopyridin-2-yl)-4-fluoropyrrolidine-2-carboxamide] yielded an IC50 of less than 1 µM. `CCc1ncc(-c2ccc3c(c2)c(C(C)=O)nn3CC(=O)N2C[C@H](F)C[C@H]2C(=O)Nc2cncc(Br)n2)cn1` [Compound 388, (2S,4R)-1-(2-(3-Acetyl-5-(2-ethylpyrimidin-5-yl)-1H-indazol-1-yl)acetyl)-N-(6-bromopyrazin-2-yl)-4-fluoropyrrolidine-2-carboxamide] showed an IC50 of less than 1 µM. For `CC(=O)c1nn(CC(=O)N2C[C@H](F)C[C@H]2C(=O)Nc2cncc(Br)n2)c2ccc(-c3cnc(C(C)C)nc3)cc12` [Compound 389, (2S,4R)-1-(2-(3-Acetyl-5-(2-isopropylpyrimidin-5-yl)-1H-indazol-1-yl)acetyl)-N-(6-bromopyrazin-2-yl)-4-fluoropyrrolidine-2-carboxamide], the IC50 was less than 1 µM. For `CNc1ncc(-c2ccc3c(c2)c(C(C)=O)nn3CC(=O)N2C[C@H](F)C[C@H]2C(=O)Nc2cccc(Br)n2)cn1` [Compound 390, (2S,4R)-1-(2-(3-Acetyl-5-(2-(methylamino)pyrimidin-5-yl)-1H-indazol-1-yl)acetyl)-N-(6-bromopyridin-2-yl)-4-fluoropyrrolidine-2-carboxamide], the IC50 was less than 1 µM. In the case of `CC(=O)c1nn(CC(=O)N2C[C@H](F)C[C@H]2C(=O)Nc2cccc(Br)n2)c2ccc(-c3cnc(CC#N)nc3)cc12` [Compound 391, (2S,4R)-1-(2-(3-Acetyl-5-(2-(cyanomethyl)pyrimidin-5-yl)-1H-indazol-1-yl)acetyl)-N-(6-bromopyridin-2-yl)-4-fluoropyrrolidine-2-carboxamide], the IC50 is reported as less than 1 µM. In the case of `CC(=O)c1nn(CC(=O)N2[C@H](C(=O)Nc3cccc(Br)n3)C[C@@]3(CO)C[C@@H]23)c2ccc(-c3cnc(C)nc3)cc12` [Compound 392, (1R,3S,5S)-2-(2-(3-Acetyl-5-(2-Methylpyrimidin-5-yl)-1H-indazol-1-yl)acetyl)-N-(6-bromopyridin-2-yl)-5-(hydroxymethyl)-2-azabicyclo[3.1.0]hexane-3-carboxamide], the IC50 is reported as less than 1 µM. Compound `CO[C@H]1[C@@H](C(=O)Nc2cccc(Br)n2)N(C(=O)Cn2nc(C(C)=O)c3cc(-c4cnc(C)nc4)ccc32)C[C@@H]1F` [Compound 393, (2S,3S,4S)-1-(2-(3-Acetyl-5-(2-methylpyrimidin-5-yl)-1H-indazol-1-yl)acetyl)-N-(6-bromopyridin-2-yl)-4-fluoro-3-methoxypyrrolidine-2-carboxamide] has an IC50 of less than 1 µM. For `COc1ccc(NC(=O)[C@@H]2C[C@@H](F)CN2C(=O)Cn2nc(C(C)=O)c3cc(-c4cnc(C)nc4)ccc32)nc1Br` [Compound 394, (2S,4R)-1-(2-(3-Acetyl-5-(2-methylpyrimidin-5-yl)-1H-indazol-1-yl)acetyl)-N-(6-bromo-5-methoxypyridin-2-yl)-4-fluoropyrrolidine-2-carboxamide], the IC50 was less than 1 µM. For `CC(=O)c1nn(CC(=O)N2C[C@@](F)(CN)C[C@H]2C(=O)Nc2cccc(Br)n2)c2ccc(-c3cnc(C)nc3)cc12` [Compound 395, (2S,4S)-1-(2-(3-Acetyl-5-(2-methylpyrimidin-5-yl)-1H-indazol-1-yl)acetyl)-4-(aminomethyl)-N-(6-bromopyridin-2-yl)-4-fluoropyrrolidine-2-carboxamide], the IC50 was less than 1 µM. `COC(=O)c1cc(Cl)nc(NC(=O)[C@@H]2C[C@@H](F)CN2C(=O)Cn2nc(C(C)=O)c3cc(-c4cnc(C)nc4)ccc32)c1` [Compound 396, Methyl 2-((2S,4R)-1-(2-(3-Acetyl-5-(2-methylpyrimidin-5-yl)-1H-indazol-1-yl)acetyl)-4-fluoropyrrolidine-2-carboxamido)-6-chloroisonicotinate] was tested, and the IC50 was less than 1 µM. For `CC(=O)c1nn(CC(=O)N2C[C@H](F)C[C@H]2C(=O)Nc2ccc(F)c(Br)n2)c2ccc(-c3cnc(C)nc3)cc12` [Compound 397, (2S,4R)-1-(2-(3-Acetyl-5-(2-methylpyrimidin-5-yl)-1H-indazol-1-yl)acetyl)-N-(6-bromo-5-fluoropyridin-2-yl)-4-fluoropyrrolidine-2-carboxamide], the IC50 was less than 1 µM. With `CC(=O)c1nn(CC(=O)N2C[C@H](F)C[C@H]2C(=O)Nc2cncc(Br)n2)c2ccc(-c3cnc(CO)nc3)cc12` [Compound 398, (2S,4R)-1-(2-(3-Acetyl-5-(2-(hydroxymethyl)pyrimidin-5-yl)-1H-indazol-1-yl)acetyl)-N-(6-bromopyrazin-2-yl)-4-fluoropyrrolidine-2-carboxamide] the IC50 was less than 1 µM. `CC(=O)c1nn(CC(=O)N2CC(F)(CN)C[C@H]2C(=O)Nc2cccc(Br)n2)c2ccc(-c3cnc(C)nc3)cc12` (stereo partly drawn) [Compound 399, (2S)-1-(2-(3-acetyl-5-(2-methylpyrimidin-5-yl)-1H-indazol-1-yl)acetyl)-4-(aminomethyl)-N-(6-bromopyridin-2-yl)-4-fluoropyrrolidine-2-carboxamide] showed an IC50 of less than 1 µM. For `CC(=O)c1nn(CC(=O)N2C[C@H](F)C[C@H]2C(=O)Nc2ccn(CC(F)F)n2)c2ccc(-c3cnc(C)nc3)cc12` [Compound 401, (2S,4R)-1-(2-(3-Acetyl-5-(2-methylpyrimidin-5-yl)-1H-indazol-1-yl)acetyl)-N-(1-(2,2-difluoroethyl)-1H-pyrazol-3-yl)-4-fluoropyrrolidine-2-carboxamide], the IC50 was less than 1 µM. `CC(=O)c1nn(CC(=O)N2C[C@H](F)C[C@H]2C(=O)Nc2ccc(C)c(Br)n2)c2ccc(-c3cnc(C)nc3)cc12` [Compound 402, (2S,4R)-1-(2-(3-Acetyl-5-(2-methylpyrimidin-5-yl)-1H-indazol-1-yl)acetyl)-N-(6-bromo-5-methylpyridin-2-yl)-4-fluoropyrrolidine-2-carboxamide] was tested, and the IC50 was less than 1 µM. Work on `CC(=O)c1nn(CC(=O)N2C[C@H](F)C[C@H]2C(=O)Nc2cccc(Br)n2)c2ccc(-c3cnc(CNC(=O)OC(C)(C)C)nc3)cc12` [Compound 403, tert-butyl ((5-(3-Acetyl-1-(2-((2S,4R)-2-((6-bromopyridin-2-yl)carbamoyl)-4-fluoropyrrolidin-1-yl)-2-oxoethyl)-1H-indazol-5-yl)pyrimidin-2-yl)methyl)carbamate] yielded an IC50 of less than 1 µM.
